Data on 6 molecules can be found in patent publication US12723063B2, “GIPR-agonist compounds” (Eli Lilly and Company, priority 2019, dated 2026).

What all share (assay): cAMP functional assay (HTRF) in HEK293 cells in presence of 0.1% casein
What all share (format): cell-based

For assay [1], the target named is T1, human glucose-dependent insulinotropic peptide receptor (GIPR) (Homo sapiens, UniProt P48546).
T1 construct: expressed in transfected cells; host or cells: HEK293
T1 sequence (P48546 22-466): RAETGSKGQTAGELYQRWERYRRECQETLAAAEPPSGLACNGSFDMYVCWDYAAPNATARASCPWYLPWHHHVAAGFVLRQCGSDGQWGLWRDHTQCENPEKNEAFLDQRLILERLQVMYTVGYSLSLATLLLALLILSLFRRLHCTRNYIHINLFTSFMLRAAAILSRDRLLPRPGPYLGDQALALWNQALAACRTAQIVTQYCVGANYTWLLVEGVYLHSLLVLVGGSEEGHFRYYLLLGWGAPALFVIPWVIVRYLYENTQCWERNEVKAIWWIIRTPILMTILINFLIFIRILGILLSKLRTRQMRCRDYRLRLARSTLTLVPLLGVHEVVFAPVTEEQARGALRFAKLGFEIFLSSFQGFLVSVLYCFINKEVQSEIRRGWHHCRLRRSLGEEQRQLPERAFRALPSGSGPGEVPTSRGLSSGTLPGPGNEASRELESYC
Particulars: HEK293 cells expressing human GIPR, geometric mean, read-out: hGIPR cAMP Rel EC50 nM (SEM, n).

Assay [2] concerns the target T2, human GLP-1 receptor (GLP-1R) (Homo sapiens, UniProt P43220).
T2 construct: expressed in transfected cells; host or cells: HEK293
Particulars: HEK293 cells expressing human GLP-1R, geometric mean, read-out: hGLP1R cAMP Rel EC50 nM (SEM, n).

The target in assay [3] is T3, human glucagon receptor (GcgR) (Homo sapiens, UniProt P47871).
T3 construct: expressed in transfected cells; host or cells: HEK293
T3 sequence (P47871 26-477): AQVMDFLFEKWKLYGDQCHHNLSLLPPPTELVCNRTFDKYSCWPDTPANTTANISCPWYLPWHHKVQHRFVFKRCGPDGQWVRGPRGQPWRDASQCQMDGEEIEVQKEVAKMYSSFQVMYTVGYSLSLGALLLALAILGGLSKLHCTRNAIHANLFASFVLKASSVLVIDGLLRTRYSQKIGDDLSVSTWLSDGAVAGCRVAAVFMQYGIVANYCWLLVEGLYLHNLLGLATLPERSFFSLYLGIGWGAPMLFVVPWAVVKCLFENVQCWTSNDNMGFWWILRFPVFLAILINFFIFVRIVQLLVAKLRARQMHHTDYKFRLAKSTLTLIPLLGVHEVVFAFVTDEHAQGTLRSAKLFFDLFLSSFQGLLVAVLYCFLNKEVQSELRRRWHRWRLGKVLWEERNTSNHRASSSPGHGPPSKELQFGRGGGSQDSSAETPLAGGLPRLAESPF
The settings on record: HEK293 cells expressing human GcgR, geometric mean, read-out: hGcgR cAMP Rel EC50 nM (SEM, n).

SMILES strings stand for the structures. *1 amine or outer side, *2 acyl side, *3 side chain or, on linkers, in order; H or OH if unused. Where a SMILES comes first, the peptide text is derived from it. Side-chain parts run from the residue outwards. [ ]: non-standard residue; d: D form. The star is where a group is joined. C18 diacid = O=C(O)CCCCCCCCCCCCCCCCC(=O)*; γGlu = O=C(O)[C@H](CCC(=O)[*:2])N[*:1]; 4Pal = N[C@@H](Cc1ccncc1)C(=O)O; AEEA = NCCOCCOCC(=O)O; Aib = CC(C)(N)C(=O)O Where only a bound is given, the exact number is not on record here.

T2 sequence (P43220 24-463): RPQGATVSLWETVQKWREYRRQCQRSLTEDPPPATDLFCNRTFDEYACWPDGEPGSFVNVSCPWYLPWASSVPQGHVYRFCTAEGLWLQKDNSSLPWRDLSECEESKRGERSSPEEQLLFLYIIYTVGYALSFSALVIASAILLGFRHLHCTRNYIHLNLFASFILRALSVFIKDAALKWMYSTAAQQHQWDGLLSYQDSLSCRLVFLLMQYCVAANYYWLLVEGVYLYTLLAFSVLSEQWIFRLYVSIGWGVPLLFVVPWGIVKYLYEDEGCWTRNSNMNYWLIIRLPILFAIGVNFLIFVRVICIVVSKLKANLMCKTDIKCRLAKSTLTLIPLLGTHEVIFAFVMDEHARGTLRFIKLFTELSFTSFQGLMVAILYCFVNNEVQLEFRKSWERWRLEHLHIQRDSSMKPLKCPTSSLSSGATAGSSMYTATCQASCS

Broadly, the EC50 is the concentration needed to bring the measured effect to its halfway point. As to `CC[C@H](C)[C@H](NC(=O)[C@H](CO)NC(=O)[C@H](Cc1ccc(O)cc1)NC(=O)[C@H](CC(=O)O)NC(=O)[C@H](CO)NC(=O)[C@@H](NC(=O)[C@H](Cc1ccccc1)NC(=O)[C@@H](NC(=O)CNC(=O)[C@H](CCC(=O)O)NC(=O)[C@@H](C)NC(=O)[C@@H](N)Cc1ccc(O)cc1)[C@@H](C)O)[C@@H](C)CC)C(=O)N[C@@H](CC(C)C)C(=O)N[C@@H](CC(C)C)C(=O)N[C@@H](CC(=O)O)C(=O)N[C@@H](CCCCN)C(=O)N[C@@H](CCCCNC(=O)COCCOCCNC(=O)COCCOCCNC(=O)CC[C@H](NC(=O)CCCCCCCCCCCCCCCCC(=O)O)C(=O)O)C(=O)N[C@@H](C)C(=O)N[C@@H](CCC(N)=O)C(=O)NC(C)(C)C(=O)N[C@@H](CC(=O)O)C(=O)N[C@@H](Cc1ccccc1)C(=O)N[C@H](C(=O)N[C@@H](CC(N)=O)C(=O)N[C@@H](Cc1c[nH]c2ccccc12)C(=O)N[C@@H](CC(C)C)C(=O)N[C@@H](CC(C)C)C(=O)N[C@@H](CCC(=O)O)C(=O)N[C@@H](CCC(N)=O)C(=O)NCC(=O)N1CCC[C@H]1C(=O)N[C@@H](CO)C(=O)N[C@@H](CO)C(=O)NCC(=O)N[C@@H](C)C(=O)N1CCC[C@H]1C(=O)N1CCC[C@H]1C(=O)N1CCC[C@H]1C(=O)N[C@@H](CO)C(N)=O)C(C)C` [Example 17] (H-Y[dA]EGTFISDYSILLDKK([AEEA-AEEA-γGlu-C18 diacid])AQ[Aib]DFVNWLLEQGPSSGAPPPS-NH2), the EC50 in assay [1] was 0.0135 nM; in assay [2], more than 5000 nM; in assay [3] it was more than 5000 nM.

For the molecule `CC[C@H](C)[C@H](NC(=O)[C@H](CO)NC(=O)[C@H](Cc1ccc(O)cc1)NC(=O)[C@H](CC(=O)O)NC(=O)[C@H](CO)NC(=O)[C@@H](NC(=O)[C@H](Cc1ccccc1)NC(=O)[C@@H](NC(=O)CNC(=O)[C@H](CCC(=O)O)NC(=O)[C@@H](C)NC(=O)[C@@H](N)Cc1ccc(O)cc1)[C@@H](C)O)[C@@H](C)CC)C(=O)N[C@@H](CC(C)C)C(=O)N[C@@H](CC(C)C)C(=O)N[C@@H](CC(=O)O)C(=O)N[C@@H](CCCCN)C(=O)N[C@@H](CCCCNC(=O)COCCOCCNC(=O)COCCOCCNC(=O)CC[C@H](NC(=O)CCCCCCCCCCCCCCCCC(=O)O)C(=O)O)C(=O)N[C@@H](C)C(=O)N[C@@H](CCC(N)=O)C(=O)NC(C)(C)C(=O)N[C@@H](CC(=O)O)C(=O)N[C@@H](Cc1ccccc1)C(=O)N[C@H](C(=O)N[C@@H](CC(N)=O)C(=O)N[C@@H](Cc1ccncc1)C(=O)N[C@@H](CC(C)C)C(=O)N[C@@H](CC(C)C)C(=O)N[C@@H](C)C(=O)N[C@@H](CCC(N)=O)C(=O)NCC(=O)N1CCC[C@H]1C(=O)N[C@@H](CO)C(=O)N[C@@H](CO)C(=O)NCC(=O)N[C@@H](C)C(=O)N1CCC[C@H]1C(=O)N1CCC[C@H]1C(=O)N1CCC[C@H]1C(=O)N[C@@H](CO)C(N)=O)C(C)C` [Example 18] (H-Y[dA]EGTFISDYSILLDKK([AEEA-AEEA-γGlu-C18 diacid])AQ[Aib]DFVN[4Pal]LLAQGPSSGAPPPS-NH2), the results for the EC50 in assay [1], in assay [2] and in assay [3] were 0.00656 nM, more than 5000 nM and more than 5000 nM, respectively.

Regarding `CC[C@H](C)[C@H](NC(=O)[C@H](CO)NC(=O)[C@H](Cc1ccc(O)cc1)NC(=O)[C@H](CC(=O)O)NC(=O)[C@H](CO)NC(=O)[C@@H](NC(=O)[C@H](Cc1ccccc1)NC(=O)[C@@H](NC(=O)CNC(=O)[C@H](CCC(=O)O)NC(=O)[C@@H](C)NC(=O)[C@@H](N)Cc1ccc(O)cc1)[C@@H](C)O)[C@@H](C)CC)C(=O)N[C@@H](CC(C)C)C(=O)N[C@@H](CC(C)C)C(=O)N[C@@H](CC(=O)O)C(=O)N[C@@H](CCCCN)C(=O)N[C@@H](CCCCNC(=O)COCCOCCNC(=O)COCCOCCNC(=O)CC[C@H](NC(=O)CCCCCCCCCCCCCCCCC(=O)O)C(=O)O)C(=O)N[C@@H](C)C(=O)N[C@@H](CCC(N)=O)C(=O)NC(C)(C)C(=O)N[C@@H](CC(=O)O)C(=O)N[C@@H](Cc1ccccc1)C(=O)N[C@H](C(=O)N[C@@H](CC(N)=O)C(=O)N[C@@H](Cc1c[nH]c2ccccc12)C(=O)N[C@@H](CC(C)C)C(=O)N[C@@H](CC(C)C)C(=O)N[C@@H](C)C(=O)NCC(=O)NCC(=O)N1CCC[C@H]1C(=O)N[C@@H](CO)C(=O)N[C@@H](CO)C(=O)NCC(=O)N[C@@H](C)C(=O)N1CCC[C@H]1C(=O)N1CCC[C@H]1C(=O)N1CCC[C@H]1C(=O)N[C@@H](CO)C(N)=O)C(C)C` [Example 19] (H-Y[dA]EGTFISDYSILLDKK([AEEA-AEEA-γGlu-C18 diacid])AQ[Aib]DFVNWLLAGGPSSGAPPPS-NH2), the figures for the EC50 in assay [1], in assay [2] and in assay [3] were 0.00992 nM, more than 5000 nM and more than 5000 nM, respectively.

For `CC[C@H](C)[C@H](NC(=O)[C@H](CO)NC(=O)[C@H](Cc1ccc(O)cc1)NC(=O)[C@H](CC(=O)O)NC(=O)[C@H](CO)NC(=O)[C@@H](NC(=O)[C@H](Cc1ccccc1)NC(=O)[C@@H](NC(=O)CNC(=O)[C@H](CCC(=O)O)NC(=O)[C@@H](C)NC(=O)[C@@H](N)Cc1ccc(O)cc1)[C@@H](C)O)[C@@H](C)CC)C(=O)N[C@@H](CC(C)C)C(=O)N[C@@H](CC(C)C)C(=O)N[C@@H](CC(=O)O)C(=O)N[C@@H](CCCCN)C(=O)N[C@@H](CCCCNC(=O)COCCOCCNC(=O)COCCOCCNC(=O)CC[C@H](NC(=O)CCCCCCCCCCCCCCCCC(=O)O)C(=O)O)C(=O)N[C@@H](C)C(=O)N[C@@H](CCC(N)=O)C(=O)NC(C)(C)C(=O)N[C@@H](CCC(=O)O)C(=O)N[C@@H](Cc1ccccc1)C(=O)N[C@H](C(=O)N[C@@H](CC(N)=O)C(=O)N[C@@H](Cc1c[nH]c2ccccc12)C(=O)N[C@@H](CC(C)C)C(=O)N[C@@H](CC(C)C)C(=O)N[C@@H](C)C(=O)N[C@@H](CCC(N)=O)C(=O)NCC(=O)N1CCC[C@H]1C(=O)N[C@@H](CO)C(=O)N[C@@H](CO)C(=O)NCC(=O)N[C@@H](C)C(=O)N1CCC[C@H]1C(=O)N1CCC[C@H]1C(=O)N1CCC[C@H]1C(=O)N[C@@H](CO)C(N)=O)C(C)C` [Example 20] (H-Y[dA]EGTFISDYSILLDKK([AEEA-AEEA-γGlu-C18 diacid])AQ[Aib]EFVNWLLAQGPSSGAPPPS-NH2), the EC50 in assay [1] was 0.00933 nM; in assay [2], more than 5000 nM; in assay [3], more than 5000 nM.

In the case of `CC[C@H](C)[C@H](NC(=O)[C@H](CO)NC(=O)[C@H](Cc1ccc(O)cc1)NC(=O)[C@H](CC(=O)O)NC(=O)[C@H](CO)NC(=O)[C@@H](NC(=O)[C@H](Cc1ccccc1)NC(=O)[C@@H](NC(=O)CNC(=O)[C@H](CCC(=O)O)NC(=O)C(C)(C)NC(=O)[C@@H](N)Cc1ccc(O)cc1)[C@@H](C)O)[C@@H](C)CC)C(=O)N[C@@H](C)C(=O)N[C@@H](CC(C)C)C(=O)N[C@@H](CC(=O)O)C(=O)N[C@@H](CCCCN)C(=O)N[C@@H](CCCCNC(=O)COCCOCCNC(=O)COCCOCCNC(=O)CC[C@H](NC(=O)CCCCCCCCCCCCCCCCC(=O)O)C(=O)O)C(=O)N[C@@H](Cc1c[nH]cn1)C(=O)N[C@@H](CCC(N)=O)C(=O)NC(C)(C)C(=O)N[C@@H](CC(=O)O)C(=O)N[C@@H](Cc1ccccc1)C(=O)N[C@H](C(=O)N[C@@H](CCC(=O)O)C(=O)N[C@@H](Cc1ccncc1)C(=O)N[C@@H](CC(C)C)C(=O)N[C@@H](CC(C)C)C(=O)N[C@@H](C)C(=O)NCC(=O)NCC(=O)N1CCC[C@H]1C(=O)N[C@@H](CO)C(=O)N[C@@H](CO)C(=O)NCC(=O)N[C@@H](C)C(=O)N1CCC[C@H]1C(=O)N1CCC[C@H]1C(=O)N1CCC[C@H]1C(=O)N[C@@H](CO)C(N)=O)C(C)C` [Example 21] (H-Y[Aib]EGTFISDYSIALDKK([AEEA-AEEA-γGlu-C18 diacid])HQ[Aib]DFVE[4Pal]LLAGGPSSGAPPPS-NH2), the EC50 in assay [1] is 0.291 nM; in assay [2], more than 5000 nM; in assay [3], more than 5000 nM.

For `CC[C@H](C)[C@H](NC(=O)[C@H](CO)NC(=O)[C@H](Cc1ccc(O)cc1)NC(=O)[C@H](CC(=O)O)NC(=O)[C@H](CO)NC(=O)[C@@H](NC(=O)[C@H](Cc1ccccc1)NC(=O)[C@@H](NC(=O)CNC(=O)[C@H](CCC(=O)O)NC(=O)C(C)(C)NC(=O)[C@@H](N)Cc1ccc(O)cc1)[C@@H](C)O)[C@@H](C)CC)C(=O)N[C@@H](CC(C)C)C(=O)N[C@@H](CC(C)C)C(=O)N[C@@H](CC(=O)O)C(=O)N[C@@H](CCCCN)C(=O)N[C@@H](CCCCNC(=O)COCCOCCNC(=O)COCCOCCNC(=O)CC[C@H](NC(=O)CCCCCCCCCCCCCCCCC(=O)O)C(=O)O)C(=O)N[C@@H](Cc1c[nH]cn1)C(=O)N[C@@H](CCC(N)=O)C(=O)NC(C)(C)C(=O)N[C@@H](CC(=O)O)C(=O)N[C@@H](Cc1ccccc1)C(=O)N[C@H](C(=O)N[C@@H](CCC(=O)O)C(=O)N[C@@H](Cc1ccncc1)C(=O)N[C@@H](CC(C)C)C(=O)N[C@@H](CC(C)C)C(=O)N[C@@H](C)C(=O)NCC(=O)NCC(=O)N1CCC[C@H]1C(=O)N[C@@H](CO)C(=O)N[C@@H](CO)C(=O)NCC(=O)N[C@@H](C)C(=O)N1CCC[C@H]1C(=O)N1CCC[C@H]1C(=O)N1CCC[C@H]1C(=O)N[C@@H](CO)C(N)=O)C(C)C` [Example 22], the EC50 in assay [1] was 0.0345 nM; in assay [2], more than 5000 nM; in assay [3] it was 1250 nM.
